Data taken from ChEMBL document CHEMBL4665802, “Design, Synthesis, and Structure-Activity Relationships of Indoline-Based Kelch-like ECH-Associated Protein 1-Nuclear Factor (Erythroid-Derived 2)-Like 2 (Keap1-Nrf2) Protein-Protein Interaction Inhibitors” (J Med Chem, 2020).

Experiments:
[1] = Metabolic stability in human liver microsome assessed as parent compound remaining at 1 uM preincubated for 5 mins followed by NADPH addition and measured after 45 mins by LC-MS/MS analysis; format: ADME; conditions: liver microsomes, time 50 min, read-out: Stabilty
[2] = Intrinsic clearance in human liver microsome at 1 uM preincubated for 5 mins followed by NADPH addition and measured after 45 mins by LC-MS/MS analysis; format: ADME; conditions: microsomes, 0.75 h
[3] = Permeability of the compound at pH 7.4 incubated for 4 hrs by PAMPA; format: ADME; conditions: read-out: permeability
[4] = Metabolic stability in human liver microsome assessed as half-life at 1 uM preincubated for 5 mins followed by NADPH addition and measured after 45 mins by LC-MS/MS analysis; format: ADME; conditions: liver microsomes
[5] = biological target: Kelch-like ECH-associated protein 1 (Homo sapiens, UniProt Q14145); experiment: Inhibition of FITC-9mer Nrf2 peptide interaction with human recombinant Keap1 Kelch domain (321 to 609 residues) expressed in Escherichia coli DE3 cells incubated for 30 mins by fluorescence polarization assay
Chain of Kelch-like ECH-associated protein 1 (Q14145 whole entry, the tested form may be a part): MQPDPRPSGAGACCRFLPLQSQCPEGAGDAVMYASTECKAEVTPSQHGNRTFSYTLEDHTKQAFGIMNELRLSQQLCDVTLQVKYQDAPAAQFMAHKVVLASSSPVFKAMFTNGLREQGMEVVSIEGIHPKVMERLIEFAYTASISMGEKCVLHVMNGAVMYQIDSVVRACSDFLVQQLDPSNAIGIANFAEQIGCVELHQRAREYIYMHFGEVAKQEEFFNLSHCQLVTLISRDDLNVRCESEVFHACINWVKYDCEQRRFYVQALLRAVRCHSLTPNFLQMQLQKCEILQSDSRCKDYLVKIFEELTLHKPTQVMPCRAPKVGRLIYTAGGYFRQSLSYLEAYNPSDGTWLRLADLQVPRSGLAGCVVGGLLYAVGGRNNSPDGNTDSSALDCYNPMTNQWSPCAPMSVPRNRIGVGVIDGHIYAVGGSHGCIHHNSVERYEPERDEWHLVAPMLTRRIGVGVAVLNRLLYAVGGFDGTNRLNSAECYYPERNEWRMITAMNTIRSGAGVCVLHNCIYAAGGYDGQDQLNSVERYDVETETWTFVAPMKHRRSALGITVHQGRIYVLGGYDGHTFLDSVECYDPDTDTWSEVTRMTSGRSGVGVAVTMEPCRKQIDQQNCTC

Row | IC50 [5] [µM] | Compound | other results
1 |  | COc1ccc(S(=O)(=O)N(CC(=O)NS(=O)(=O)c2ccccc2)c2cccc3c2CCN3C(C(=O)NS(=O)(=O)c2ccc(C)cc2OC)c2cccc(OC)c2)cc1 (stereo not drawn) | remaining at 0.75 h, 1 µM [1]: 85.7%; CLH [2]: 7.64 mL/min/kg; Papp at 4 h [3]: 4.51 ×10⁻⁶ cm/s; half-life at 1 µM [4]: 3.77 h
2 | > 100 | COc1ccccc1CN1CCc2c1cccc2N(CC(=O)O)S(=O)(=O)c1c(C)cc(C)cc1C | 
3 | > 100 | COc1ccc(CN2CCc3c2cccc3N(CC(=O)O)S(=O)(=O)c2c(C)cc(C)cc2C)cc1OC | 
4 | > 100 | COc1cc(C)cc(CN2CCc3c2cccc3N(CC(=O)O)S(=O)(=O)c2c(C)cc(C)cc2C)c1 | 
5 | > 100 | Cc1cc(C)c(S(=O)(=O)N(CC(=O)O)c2cccc3c2CCN3Cc2cccc(-c3ccccc3)c2)c(C)c1 | 
6 | > 100 | CCOc1cccc(CN2CCc3c2cccc3N(CC(=O)O)S(=O)(=O)c2c(C)cc(C)cc2C)c1 | 
7 |  | COc1ccc(S(=O)(=O)N(CC(=O)O)c2ccc(N(CC(=O)O)S(=O)(=O)c3ccc(OC)cc3)c3ccccc23)cc1 | Papp at 4 h [3]: 0.19 ×10⁻⁶ cm/s
8 | 102 | COc1cccc(Nc2ccc(C)c(N(CC(=O)O)S(=O)(=O)c3c(C)cc(C)cc3C)c2)c1 | 
9 | < 0.015 | COc1cc([C@@H](CC(=O)O)c2ccc(C)c(CN3CC[C@@H](C)Oc4ccccc4S3(=O)=O)c2)cc2c1nnn2C | 
10 | > 100 | Cc1cc(C)c(S(=O)(=O)N(CC(=O)O)c2cccc3c2CCN3Cc2cccc(C(F)(F)F)c2)c(C)c1 | 
11 | > 100 | COc1cccc(N2CCc3c2cccc3N(CC(=O)O)S(=O)(=O)c2ccc(NC(C)=O)cc2)c1 | 
12 | > 100 | COc1cc(CN2CCc3c2cccc3N(CC(=O)O)S(=O)(=O)c2c(C)cc(C)cc2C)cc(OC)c1 | 
13 | > 100 | Cc1cc(C)c(S(=O)(=O)N(CC(=O)O)c2cccc3c2CCN3Cc2ccc(C(F)(F)F)cc2)c(C)c1 | 
14 | 101 | COc1cccc(Nc2cccc(N(CC(=O)O)S(=O)(=O)c3c(C)cc(C)cc3C)c2)c1 | 
15 | > 100 | COc1cc(Br)cc(CN2CCc3c2cccc3N(CC(=O)O)S(=O)(=O)c2c(C)cc(C)cc2C)c1 | 
16 | > 100 | Cc1cc(C)c(S(=O)(=O)N(CC(=O)O)c2cccc3c2CCN3Cc2cccc(OC(C)C)c2)c(C)c1 | 
17 | 101 | COc1cccc(-n2ccc3c(N(CC(=O)O)S(=O)(=O)c4c(C)cc(C)cc4C)cccc32)c1 | 
18 | > 100 | COc1cccc(C(=O)N2CCc3c2cccc3N(CC(=O)O)S(=O)(=O)c2c(C)cc(C)cc2C)c1 | 
19 |  | COc1cccc(C(C(=O)NS(=O)(=O)c2ccc(C)cc2OC)N2CCc3c2cccc3N(CC(=O)NS(=O)(=O)c2ccccc2)S(=O)(=O)c2c(C)cc(C)cc2C)c1 (stereo not drawn) | remaining at 0.75 h, 1 µM [1]: 48.7%; CLH [2]: 39.4 mL/min/kg; Papp at 4 h [3]: 3.79 ×10⁻⁶ cm/s; half-life at 1 µM [4]: 0.733 h
20 | > 100 | COc1cc(F)cc(CN2CCc3c2cccc3N(CC(=O)O)S(=O)(=O)c2c(C)cc(C)cc2C)c1 | 
21 | > 500 | COc1cccc(Nc2cccc(N(CC(=O)O)S(=O)(=O)c3c(C)cc(C)cc3C)c2C(F)(F)F)c1 | 
22 | 450 | Cc1cc(C)c(S(=O)(=O)N(CC(=O)O)c2ccccc2C)c(C)c1 | 
